Reference: patent publication US11878995B2, “Oxysterols and methods of use thereof” (SAGE THERAPEUTICS, INC., priority 2016, dated 2024)

Target: T1, GlunN1/GluN2A glutamate receptors (Homo sapiens, UniProt Q05586+Q12879)
T1 construct: expressed in transfected cells
Assay: Whole-cell patch clamp of mammalian cells (Ionworks Barracuda), NMDA potentiation
Assay type: cell-based
Settings: 3 μM compound; HEK293 cells expressing human GRIN1/GRIN2A; co-application with EC20 L-glutamate and 30 μM glycine
Experimental: NMDA potentiation was assessed using either whole cell patch clamp of mammalian cells which expressed NMDA receptors.
Whole-Cell Patch Clamp of Mammalian Cells (Ionworks Barracuda (IWB))
The whole-cell patch-clamp technique was used to investigate the effects of compounds on GlunN1/GluN2A glutamate receptors expressed in mammalian cells.
HEK293 cells were transformed with adenovirus 5 DNA and transfected with cDNA encoding the human GRIN1/GRIN2A genes. Stable transfectants were selected using G418 and Zeocin-resistance genes incorporated into the expression plasmid and selection pressure maintained with G418 and Zeocin in the medium. Cells were cultured in Dulbecco's Modified Eagle Medium/Nutrient Mixture (D-MEM/F-12) supplemented with 10% fetal bovine serum, 100 μg/ml penicillin G sodium, 100 μg/ml streptomycin sulphate, 100 μg/ml Zeocin, 5 μg/ml blasticidin and 500 μg/ml G418.
Test article effects were evaluated in 8-point concentration-response format (4 replicate wells/concentration). […]
• a) Intracellular solution (mM): 50 mM CsCl, 90 mM CsF, 2 mM MgCl2, 5 mM EGTA, 10 mM HEPES. […] Cell suspension will be pipetted into the wells (9 μL per well) of the PPC planar electrode. • b) Whole-cell recording configuration will be established via patch perforation with membrane currents recorded by on-board patch clamp amplifiers. • c) Two recordings (scans) will be performed. […]

T1 sequence (Q12879 23-1464, other chains not shown): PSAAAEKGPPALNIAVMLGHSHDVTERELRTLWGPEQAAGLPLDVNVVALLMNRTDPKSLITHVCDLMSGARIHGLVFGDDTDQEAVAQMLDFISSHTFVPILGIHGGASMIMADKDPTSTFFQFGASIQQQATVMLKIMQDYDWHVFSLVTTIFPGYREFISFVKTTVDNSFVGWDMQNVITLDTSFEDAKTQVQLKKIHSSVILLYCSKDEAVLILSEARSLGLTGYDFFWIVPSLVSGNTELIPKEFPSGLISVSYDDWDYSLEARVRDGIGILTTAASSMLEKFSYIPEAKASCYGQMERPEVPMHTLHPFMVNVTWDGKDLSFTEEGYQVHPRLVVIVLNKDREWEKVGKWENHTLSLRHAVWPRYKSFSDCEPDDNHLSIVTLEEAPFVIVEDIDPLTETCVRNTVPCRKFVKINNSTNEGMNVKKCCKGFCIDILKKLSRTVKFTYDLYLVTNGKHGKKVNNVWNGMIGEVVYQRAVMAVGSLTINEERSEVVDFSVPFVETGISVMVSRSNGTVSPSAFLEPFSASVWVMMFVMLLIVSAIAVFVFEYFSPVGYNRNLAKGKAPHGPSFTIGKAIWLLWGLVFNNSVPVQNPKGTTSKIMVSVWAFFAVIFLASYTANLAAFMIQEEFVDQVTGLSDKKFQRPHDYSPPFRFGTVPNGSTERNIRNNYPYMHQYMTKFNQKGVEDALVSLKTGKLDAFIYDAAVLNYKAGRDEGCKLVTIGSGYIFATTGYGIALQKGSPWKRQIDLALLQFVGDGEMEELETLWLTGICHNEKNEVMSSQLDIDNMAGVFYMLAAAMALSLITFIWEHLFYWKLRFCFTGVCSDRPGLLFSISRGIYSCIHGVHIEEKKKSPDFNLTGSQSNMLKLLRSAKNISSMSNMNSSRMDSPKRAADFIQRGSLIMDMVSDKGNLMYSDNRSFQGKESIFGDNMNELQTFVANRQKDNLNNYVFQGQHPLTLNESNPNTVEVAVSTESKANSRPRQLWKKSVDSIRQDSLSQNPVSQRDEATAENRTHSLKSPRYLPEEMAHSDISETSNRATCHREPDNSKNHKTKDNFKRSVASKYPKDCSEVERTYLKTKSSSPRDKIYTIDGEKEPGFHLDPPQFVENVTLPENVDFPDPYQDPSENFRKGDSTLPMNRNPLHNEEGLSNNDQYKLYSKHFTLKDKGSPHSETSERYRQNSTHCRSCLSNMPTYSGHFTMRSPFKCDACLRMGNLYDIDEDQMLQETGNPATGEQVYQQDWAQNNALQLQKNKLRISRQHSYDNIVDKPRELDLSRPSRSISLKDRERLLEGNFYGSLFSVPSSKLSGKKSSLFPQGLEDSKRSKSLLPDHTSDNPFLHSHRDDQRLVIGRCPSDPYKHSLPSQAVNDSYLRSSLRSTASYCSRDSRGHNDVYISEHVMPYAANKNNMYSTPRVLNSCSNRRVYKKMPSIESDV

[2H]C(O)(CC[C@@H](C)[C@H]1CC[C@H]2[C@@H]3CC=C4C[C@]([2H])(O)CC[C@]4(C)[C@H]3CC[C@]12C)C(C)C (stereo partly shown) [Compound 7]
GluN2A PCA IWB Ephys % potentiation at 3 μM: C (“C” indicates potentiation of >150% to 225%)
